Molecular target: T1, cnCka1 (Cryptococcus neoformans CK2α orthologue, Cka1) (Cryptococcus neoformans, UniProt J9VNH4)
T1 construct: gene CNAG_05694; full-length, Met1–Pro338 (His6-TRX fusion in SPR; tag removed for crystal)
Assay: SPR (Biacore […]) and crystal structure at […] Å; also ADP-Glo kinase assay
Type: binding

T1 sequence (J9VNH4 entry or part of it): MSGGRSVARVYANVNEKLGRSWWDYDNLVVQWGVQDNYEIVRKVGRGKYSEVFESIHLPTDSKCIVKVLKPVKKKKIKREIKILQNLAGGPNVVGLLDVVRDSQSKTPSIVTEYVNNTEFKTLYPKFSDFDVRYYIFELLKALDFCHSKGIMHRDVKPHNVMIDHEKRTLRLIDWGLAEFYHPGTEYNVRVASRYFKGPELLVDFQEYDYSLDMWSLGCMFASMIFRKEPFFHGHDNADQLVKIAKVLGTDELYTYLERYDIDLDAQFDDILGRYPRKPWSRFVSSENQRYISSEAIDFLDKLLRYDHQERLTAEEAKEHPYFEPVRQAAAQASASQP

Work on O=C(O)c1ccc2c(c1)nc(Nc1cccc(Cl)c1)c1ccncc12 [CX-4945, 5-(3-chlorophenylamino)benzo[c][2,6]naphthyridine-8-carboxylic acid] yielded a Kd of 0.0601 µM.

Reference: PMC6779870, “Structural analysis of fungal pathogenicity-related casein kinase α subunit, Cka1, in the human fungal pathogen Cryptococcus neoformans” (Scientific Reports, 2019)
